The record followed here is the pKa sets of Baltruschat and Czodrowski (2020).

For the first data set the following is noted: acidic group.
In the case of `CNC(=N)CCNS(=O)(=O)c1ccc(C)cc1`, the pKa – broadly, the negative logarithm of the acid dissociation constant – stood at 11.9.

In the case of `Oc1c(Cl)ccc(Cl)c1Cl`, the pKa turned out to be 6.12. The same measure, in the same setting: to `O=C(O)c1cc([N+](=O)[O-])ccc1F` belongs 2.73; to `C[N+](C)(C)c1ccc(O)cc1`, 8.25. Regarding `CC(=S)NCc1ccccc1`, the pKa was 13. On the same count and under the same terms, to `Oc1cc(-c2ccccc2)nn1-c1ccccc1` belongs 12.2; to `O=C(c1ccccc1)c1ccccc1O`, 9.3. Same read-out and setting: with `Nc1nc2c(ncn2[C@@H]2C=C[C@H](CO)C2)c(O)[nH+]1` the figure was 3.15.

The molecule `CCCCCC[NH2+]CCC(=O)O` came in with a pKa of 3.61. Still for that read-out and setting: to `CC(C)(C)c1ccc(SCC(=O)O)cc1` belongs 3.76; to `CC(C#N)C(C)(C)C(=O)O` (stereo unspecified), 3.97. Still for that read-out and setting: with `COC(=O)[n+]1ccc(C)cc1` the figure was 6.15; with `CC(=O)[n+]1cccc(C)c1`, 5.81.

Consider `Nc1ccc(S(=O)(=O)Nc2cccc[n+]2[O-])cc1`, for which the pKa was determined as 5.2. With `Nc1c([O-])cccc1O`, the pKa worked out at 11.6. On the same count and under the same terms, to `COc1cccc(OC)c1O` belongs 10.1.

The molecule `Cn1nc([N+](=O)[O-])nc1NN=O` came in with a pKa of 3.22. Still for that read-out and setting: with `CC(=O)/C=C(/C)O` the figure was 7.64; with `CCCC[NH+](CCS)CCCC`, 7.76. On the same count and under the same terms, with `CC(=O)Sc1ccc(O)cc1` the figure was 8.88; with `C#CCCC(=O)O`, 4.2; with `O=C(O)c1cc(Br)cs1`, 3.11. Same read-out and setting: to `Cc1ccccc1OCC(=O)O` belongs 3.17. In the case of `C[n+]1cccc2c3ccccc3[nH]c21`, the pKa stood at 7.4. Still for that read-out and setting: with `O=C(O)CCCP` the figure was 4.53; with `CC(C)N(CCC(C(N)=O)(c1ccccc1)c1ccccn1)C(C)C` (stereo unspecified), 10.2. Still for that read-out and setting: with `O=[N+]([O-])c1cc2cc(O)ccc2cc1Cl` the figure was 8.56. `C=C(C)/C=C(\O)C=C(C)C` registered a pKa of 10.8. As to `Nc1nc(N)[nH+]c(O)n1`, the pKa worked out at 4.5. `[O-]C(O)=C1c2ccccc2-c2ccccc21` came in with a pKa of 9.61.

The molecule `Cn1cnc2cc(O)ccc21` showed a pKa of 9.85. The same measure, in the same setting: with `CCCC/C=[N+](\[O-])O` the figure was 4.5; with `COc1ccc(-c2nc3nnc(SC)nc3[nH]2)c(OC)c1`, 7.69.

In turn, `Oc1nccc[nH+]1` came in with a pKa of 2.24. Still for that read-out and setting: with `CN(C)c1nc2ncncc2[nH]1` the figure was 9.73; with `NNC(=O)c1ccccc1N`, 12.8; with `Nc1ccc(S(=O)(=O)Nc2ccc(O)cn2)cc1`, 7.5. Same read-out and setting: with `CNc1ncnc2[nH]ncc12` the figure was 10.6; with `O=C(O)c1ccccc1CO`, 3.84. `NC(=O)C#CC#C/C=C/C(=O)O` gave a pKa of 3.52. Same read-out and setting: to `O=C(/C=N/O)/C=N/O` belongs 7.65; to `Cc1ccc(C(=O)O)cc1O`, 4.32. Same read-out and setting: with `Oc1ccccc1O` the figure was 9.33; with `CCC(=O)c1cc(C(=O)C(C)(C)C)n[nH]1`, 9.7. The same measure, in the same setting: with `COc1cc(S(C)=O)ccc1-c1nc2[nH]ncc2[nH]1` (stereo unspecified) the figure was 12; with `O=c1cccc([O-])cc1O`, 9.52; with `O=S(O)Cc1ccccc1`, 1.86.

Regarding `Cc1ccccc1B(O)O`, the pKa was 9.74. Still for that read-out and setting: to `CNC(=O)c1ccccc1O` belongs 8.03.

The data set is the same for the next values; noted with them: basic group.
`CNC(=N)CCNS(=O)(=O)c1ccc(C)cc1` had a pKa of 10. Same read-out and setting: with `OCCCCc1ccccn1` the figure was 5.83; with `CC(O)CNCC(C)O` (stereo unspecified), 8.88. Same read-out and setting: with `Cc1nc(NCc2ccco2)c2cn[nH]c2n1` the figure was 4.65; with `Nc1ccc([N+](=O)[O-])c(F)c1`, -0.3.

As for `COc1cc2c(cc1OC)[C@]13CCN4CC5=CCO[C@@H]6CC(=O)N2[C@@H]1[C@@H]6[C@@H]5C[C@@H]43`, the pKa was 5.86. Same read-out and setting: to `N#Cc1ccc2c(c1)CCN2` belongs 2.8; to `Cc1cc(-c2ccccc2)n(-c2ccc(C(=O)O)cc2)n1`, 1.59.

Molecule `N#CC1=CN2CCC1CC2` came in with a pKa of 5.84. Still for that read-out and setting: with `Nc1nc2ccccc2c2ccccc12` the figure was 7.31. On the same count and under the same terms, with `NCCCc1ccncc1` the figure was 9.98; with `CNC(CO)CO`, 9.12.

In the case of `Nc1ncnc2c1cnn2-c1ccccc1`, the pKa was 3.89. Same read-out and setting: to `CSc1nc(N)n[nH]1` belongs 3.27; to `CSS/C(CCO)=C(/C)N(C=O)Cc1cnc(C)nc1N`, 5.59; to `CC(C)[NH+](CCC(c1ccccc1)c1ccccn1)C(C)C` (stereo unspecified), 3.2. As for `COc1ncnc2c1cnn2C`, the pKa is 2.51.

On to `C[C@H]([C@H](O)c1ccccc1)N(C)C`, for which the pKa was 10. Same read-out and setting: with `N=c1c2ccccc2[nH]c2ccccc12` the figure was 9.99; with `C[C@H]1C[C@@]23[C@@H]4CCCN2CCC[C@H]3[C@@H](O)C[C@H]4C1=O`, 9.13; with `CC(C)(N)c1ccccc1`, 10.4. On the same count and under the same terms, to `Nc1ccc2cncnc2c1` belongs 4.6; to `CCCC[NH2+]CCN`, 7.53; to `ClC1CC2CCN1CC2` (stereo unspecified), 6.98. Still for that read-out and setting: to `CCCCC/C(N)=N/N(C)C` belongs 10.4; to `C[Si](C)(C)CCN`, 11; to `CN1[C@H]2CC=C(C(=O)[O-])[C@@H]1CC2`, 10.8.

With `C[N+](C)(C)CCN`, the pKa was found to be 7.34. Same read-out and setting: with `CNCC(=O)[O-]` the figure was 10.1; with `COc1cccc(NCCS)c1`, 5.18. The same measure, in the same setting: with `c1c(CN2CCNCC[NH2+]CC2)n[nH]c1CN1CCNCCNCC1` the figure was 10.5; with `Nc1cccnn1`, 5.19; with `Cn1cnc2cc(O)ccc21`, 6.1. `CN(C)[C@H]1CC[C@@H](C)CC1` yielded a pKa of 10.5. Same read-out and setting: to `COc1ccc(-c2ncc(-c3ccc([NH3+])cc3)o2)cc1` belongs 0.85. `N/C(=[NH+]\O)c1ccccc1N`: the pKa turned out to be 2.2.

For `CNO`, the pKa was found to be 6.05. Still for that read-out and setting: to `CN(C)c1nc2ncncc2[nH]1` belongs 4.8.

For the molecule `CC[C@]1(O)C[C@H](C)N[C@@H]2CCCC[C@H]21`, the pKa was determined as 10.1. On the same count and under the same terms, to `CCCC(=O)SCCN(C)C` belongs 8.32. Same read-out and setting: with `NNC(=O)c1ccccc1N` the figure was 3.47; with `C[C@H](N)[C@@H](C)N`, 9.88. The same measure, in the same setting: to `C[NH+](C)c1ccc(N)cc1` belongs 3.73.

`c1c[nH+]ccn1` gave a pKa of -5.55. Take `CCc1cnc2c(ccc3cccnc32)c1`: the pKa worked out at 4.98. On to `COc1ccc(CCN)cc1`, for which the pKa came to 9.79. On the same count and under the same terms, with `CNc1ncnc2[nH]ncc12` the figure was 4.53; with `C[C@@H]1CNC[C@H](C)[NH2+]1`, 5.4. Same read-out and setting: with `CC[NH+](CC)CC(C)Nc1c2ccc(Cl)cc2nc2ccc(OC)cc12` (stereo unspecified) the figure was 7.15. Still for that read-out and setting: to `O=P([O-])([O-])C(NCc1ccncc1)c1ccccc1[O-]` (stereo unspecified) belongs 12.2; to `COc1cc(S(C)=O)ccc1-c1nc2[nH]ncc2[nH]1` (stereo unspecified), 3.8; to `COC(=O)[C@H](Cc1c[nH]cn1)NC(C)=O`, 6.3. Consider `CN1CCN(C(=O)c2ccccc2)CC1`, for which the pKa worked out at 6.78.

Turning to `Nc1ccccc1Cl`, the pKa came to 2.64. For the molecule `CC(C)(C)c1ccc(C(O)CCCN2CCC(C(O)(c3ccccc3)c3ccccc3)CC2)cc1` (stereo unspecified), the pKa came to 8.6. `CCN(CC)CCC#N` returned a pKa of 7.62. The same measure, in the same setting: with `Nc1nnnn1Cc1ccccc1` the figure was 1.44.
